Test results published in patent US5601806A, “Methods for scavenging active oxygen compounds and preventing damage from ultra violet B rays using taurine analogues” (Sogo Pharmaceutical Company Limited, priority 1991, dated 1997).

Experiments:
[1] = SOD-mimic functions of thiotaurine (xanthine-xanthine oxidase-NBT method); assay type: biochemical
Excerpt: Experimental method: Measurement of the SOD-mimic functions was done, with slight modifications, according to the Xanthine-xanthine oxidase-nitrobluetetrazolium (NBT) method described in Lipid Peroxide Experiments (edited by N. Kaneda, N. Ueda, Ishiyaku Press, p. 144). The measurement is based on measuring at 560 nm the amount of formazan produced by the reduction of NBT with a superoxide which results from the oxidation of xanthine with xanthine oxidase, and calculating the activation thereof. The modification involved irradiation with UVB ([…], 1.8 J/cm^2, 313 nm) for 5 minutes while simultaneously adding the xanthine oxidase, in order to interrupt the reaction.

[2] = Preventing effect on photo-oxidation of methionine by hydroxyl radical; assay type: biochemical; conditions: 1 mM thiotaurine, 1 mM methionine, riboflavin, NADH, Fe (II) EDTA, UVA 370 nm
Method: In a quartz cell was placed 1 mM of methionine, riboflavin, NADH and Fe (II) EDTA, and super high pressure mercury lamp rays (UVA 370 nm) were irradiated thereto, thus presenting a control. Next, 1 mM of thiotaurine was added to the same system mentioned above and the reaction was initiated by light irradiation as before, while the two reactions were sequentially followed by HPLC and finally compared.
These systems, to which the Fe (II) chelate compound and electron donor, NADH, were added in the presence of riboflavin, produced the HO.

[3] = Reactivity with ^1 O2 in riboflavin, rose bengal and methylene blue/h.nu.-systems with DABCO; assay type: biochemical; conditions: DABCO as quencher
Excerpt: Therefore, the 3 systems listed below were used in identical experiments.
1. Riboflavin/h.nu.-system, 1,4-diazabicyclooctane (DABCO) as ^1 O2 quencher
2. Rose bengal/h.nu.-system DABCO as ^1 O2 quencher
3. Methylene blue/h.nu.-system DABCO as ^1 O2 eliminator

[4] = Primary skin irritation test; assay type: in vivo; conditions: rabbits
Method: (§1) In addition, the result was determined to be negative in both a primary skin irritation test and an eye irritation test using rabbits.

[5] = Effect on hydrocortisone induced chick embryo cataract; assay type: in vivo, White leghorn chick embryos; conditions: HC 0.12 mg/egg
Method: White leghorn chick embryos were incubated in an incubator at a temperature of 37° C. and a humidity of approximately 70%. Then a solution of 0.12 mg of hydrocortisone succinate (HC) in 0.2 ml of purified water was administered through the air chambers of the eggs of the control group and the test group on the 15th day of incubation. Thiotaurine was then given to the test group 2 hours, or 2 and 5 hours, after HC administration.
The lenses were removed 8 hours after HC administration, and the presence of cataracts was judged according to the criteria listed in Table 8, using the method of Nishikuni, et. al. (Investigative Opthamology and Visual Science, 25, p. 1051, 1984).
I. Lens was clear and indistinguishable from control.
IV: Pinhole-sized clear area in an opaque nucleus.

[6] = H2 O2 scavenging function; assay type: biochemical
Method: In a quartz cell were placed 1 mM of thiotaurine and […] of H2 O2, and the change in thiotaurine was measured by HPLC while irradiating with light.

[7] = test system: bacteria; assay type: cell-based; conditions: coexistence or non-coexistence with S9Mix
[8] = Effect on alloxan diabetes; assay type: in vivo, Wistar Imamichi rats; conditions: 500 mg/kg oral once a day, 2 weeks
Method: Thiotaurine was orally administered in an amount of 500 mg/kg once a day to Wistar Imamichi rats, for a period of 2 weeks. Three days prior to the last administration of the medicine feeding of the rats was stopped for 16 hours, and alloxan dissolved in chilled physiological saline was intravenously injected at an amount of 75 mg/kg. One hour after the last administration of the medicine, the rats were killed, their blood was obtained, and a measurement was made of the triglycerides and blood sugar in the blood, using the enzyme method.

[9] = Long-term administration to rats, 180 days; assay type: in vivo; conditions: 200 mg/kg every day
Excerpt: The active ingredient compound according to the present invention, an aminothiosulfonic acid, not only functions as a light shield and as a production inhibitor or scavenger of lipid peroxides and active oxygen, but since it and its decomposition products are structurally similar to compounds which are naturally present in the body including taurine, etc. (C.R. Acad. Sci., Ser. 3, 302 (13) 503-8: Presence of Large Quantities of Thiotaurine and Hypotaurine in the Tissues of Riftia pachyptila), its toxicity is extremely low making it a safe substance.

[10] = Lipid peroxide production inhibitory effect; assay type: biochemical
Method: Fifty ml of a solution prepared by combining a solution of 12.5 mg of methyl linoleate, 2.5 mg of Rf and 2-70 mg of thiotaurine in ethanol with a wing buffer solution, and the resulting solution was subjected to light irradiation as in Experiment 2. After a determined period of time a sample was recovered, and the lipid peroxides were measured using the Yagi method.

[11] = parameters: species or system rabbits; conditions: rabbit, in vivo
Method: as §1

[12] = in vivo; conditions: rat, SD male and female rats, oral
[13] = Influence of externally applied thiotaurine on UVB rays (erythema, SPF); assay type: in vivo, male Hartley guinea pigs
Method: Thiotaurine was added to a base cream of the composition indicated in Table 5, at concentrations of 5.0% (w/w) and 7.5% (w/w), respectively.
Experimental method: In this experiment, male Hartley guinea pigs of body weight 230-250 g were used. The back, abdomen and side hair of the guinea pigs was first roughly removed with hair clippers, after which the hair was completely removed with care using a Brown electric shaver. On the morning of the next day, the hair was again removed, the body weights measured, and the groups divided. The UVB radiation was applied in 10 stages of 0.075, 0.1, 0.15, 0.2, 0.3, 0.4, 0.5, 0.6, 0.7, and 0.8. Five minutes prior to irradiation, the base cream was applied to the control area, and the thiotaurine-containing cream preparations were applied to the test area. Then observations were made 2, 4, 6, 8, and 24 hours later to determine the presence of erythema, visually.
1; Difficult to determine presence or absence of erythema
2; Erythema clearly present but edges unclear
3; Erythema clearly present and edges clear

[14] = Reactivity with singlet oxygen, riboflavin (Rf)/h.nu.-system; assay type: biochemical; conditions: for thiotaurine reacted with ^1 O2 (decomposition): absence of NaN3, pH 7.8
Method: Fourteen milligrams of thiotaurine and 1.5 mg of riboflavin (Rf) were dissolved in 50 ml of a wing buffer solution (pH 7.8), after which light irradiation (FL20SBRF Toshiba, UVA 0.1 mW/cm^2, UVB 0.1 mW/cm^2, visible light 0.4 mW/cm^2) was initiated in the presence and in the absence of 34 mg of sodium azide (NaN3). After continuously reacting the product from the reactant solution with dansyl chloride, a fluorescent reagent, high-performance liquid chromatography was used for separation and analysis.
The conditions for the high-performance liquid chromatography were as listed below.
Mobile phase: 0.1M phosphate buffer solution: THF ([…]): acetonitrile=670:40:350
The results obtained are shown in FIG. 1 as percentages (%) for the proportions of thiotaurine, hypotaurine and taurine at each hour shown.
It is assumed that in the Rf/h.nu.-system ^1 O2 is produced according to the formula listed below as Chemical formula 7.

[15] = target: SOD (Bos taurus, UniProt P00442); experiment: SOD activating function; assay type: biochemical; conditions: read-out: SOD activating function (SOD activation rate)
Sequence of SOD (P00442 whole entry): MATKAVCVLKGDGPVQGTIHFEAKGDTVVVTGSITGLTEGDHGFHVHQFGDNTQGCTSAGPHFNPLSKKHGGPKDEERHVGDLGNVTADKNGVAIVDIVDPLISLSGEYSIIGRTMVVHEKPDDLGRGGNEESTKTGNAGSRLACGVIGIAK
Method: (§2) Next, a measurement was made of the SOD activating function.
Method of measurement of SOD activating function
Test Comp. 0.1 0.1 -- --
Preincubate 25° C., 10 min.
UVB radiation, 6.0 mw/cm^2, 5 min. (1.8 J/cm^2)
(1) System for observing whether the consumption of superoxides by SOD is
further increased with the test composition.
(§3) (3) System for inhibiting XOD reaction with SOD. XOD reaction was 20%
(4) System for a complete, uninhibited XOD reaction.
The SOD activation rates of the test compositions were calculated using the equation listed as Equation 1 below, and the results shown in Table 3 were obtained. [formula]

[16] = test system: tyrosinase; experiment: Tyrosine oxidation preventing effect (tyrosine oxide polymer production); assay type: biochemical; conditions: Indoors
[17] = test system: tyrosinase; experiment: as above; assay type: biochemical; conditions: Ultraviolet rays
Method: In a quartz cell was put 1 ml of L-tyrosine (30 mg/100 ml), 1 ml of a tris buffer solution and 0.9 ml of a test solution (6.25×1/10^2 mol/l-1 mol/l), and the mixture was allowed to stand under radiation from an ultraviolet lamp at 37° C. for 10 minutes. Following this, 0.1 ml of tyrosinase (2000 units/ml) were added thereto, and further irradiated under an ultraviolet lamp at 37° C. for 30 minutes, after which the production of tyrosine oxide polymers was measured at 475 nm.

[18] = alloxan; cited from earlier work
[19] = applied externally to the skin; cited from earlier work
[20] = test system: XOD; experiment: Inhibition of XOD reaction by SOD (system (3) of SOD activating method); assay type: biochemical; conditions: SOD 0.1 ml
Excerpt: as §2, §3

[21] = alloxan 75 mg/kg i.v., P < 0.05 vs control group

## NCCS(=O)(O)=S [thiotaurine, Aminoethyl thiosulfonate]
[1]; 10^-2 M/reaction solution
  Superoxide production inhibition rate: 34.4%
[1]; 10^-3 M/reaction solution
  Superoxide production inhibition rate: 34.7%
[1]; 10^-4 M/reaction solution
  Superoxide production inhibition rate: 43.2%
[1]; 10^-5 M/reaction solution
  Superoxide production inhibition rate: 35.7%
[1]; 10^-6 M/reaction solution
  Superoxide production inhibition rate: 47.0%
[1]; 10^-7 M/reaction solution
  Superoxide production inhibition rate: 34.7%
[2]
  inhibition of methionine oxidation with HO.: inhibits the methionine oxidation with HO., and has a scavenging effect against hydroxy radicals
[3]
  reaction with ^1 O2: reacts with ^1 O2 in all three systems
[4]
  primary skin irritation: negative
[5]; 0.5 mg × 1 time/egg
  Determination: lenses of grade II (faint opaque ring): 6/8
  Determination: lenses of grade III (distinct opaque ring): 2/8
[5]; 1.0 mg × 1 time/egg
  Determination: lenses of grade I (clear): 2/8
  Determination: lenses of grade II (faint opaque ring): 2/8
  Determination: lenses of grade III (distinct opaque ring): 4/8
[5]; 1.0 mg × 2 times/egg
  Determination: lenses of grade I (clear): 4/8
  Determination: lenses of grade II (faint opaque ring): 4/8
[5]; 2.0 mg × 2 times/egg
  Determination: lenses of grade I (clear): 4/8
  Determination: lenses of grade II (faint opaque ring): 4/8
[6]; light irradiation, 1 mM thiotaurine
  oxidation of thiotaurine to taurine and hypotaurine with H2 O2, time: about 3 hours
[6]; no light irradiation
  reaction with H2 O2: did not react at all
[7]
  mutagenicity (Ames Test): no mutagenecity was observed
[8]
  increase of glucose suppressed to, compared with control: 65%
  increase of triglycerides suppressed to, compared with control: 70%
[8]; [21]
  Blood sugar: 769.1 ± 120.3 mg/dL
  Triglyceride: 363.8 ± 38.2 mg/dL
[8]; control = 100
  Blood sugar relative to control group (100): 65
  Triglyceride relative to control group (100): 70
[9]
  change in the body weight curve: no change in the body weight curve
  deaths: no deaths at all
[10]; 2.8×1/10^4 M, after 7.5 hours, 280 µM
  prevention of production of lipid peroxides: approximately 50%
[10]; 4×1/10^3 M, 4000 µM
  prevention of production of lipid peroxides: ~100%
[11]
  eye irritation: negative
[12]
  LD50: > 2000 mg/kg
[13]; 5% (w/w) cream, 2 hr post-irradiation
  SPF value: 3.6
[13]; 5% (w/w) cream, 4 hr post-irradiation
  SPF value: 3.6
[13]; 5% (w/w) cream, 6 hr post-irradiation
  SPF value: 3.8
[13]; 5% (w/w) cream, 8 hr post-irradiation
  SPF value: 4.1
[13]; 5% (w/w) cream, 24 hr post-irradiation
  SPF value: 5.0
[13]; 7.5% (w/w) cream, 2 hr post-irradiation
  SPF value: 4.4
[13]; 7.5% (w/w) cream, 4 hr post-irradiation
  SPF value: 4.3
[13]; 7.5% (w/w) cream, 6 hr post-irradiation
  SPF value: 4.3
[13]; 7.5% (w/w) cream, 8 hr post-irradiation
  SPF value: 4.3
[13]; 7.5% (w/w) cream, 24 hr post-irradiation
  SPF value: 5.7
[14]; 2 hours
  thiotaurine reacted with ^1 O2 (decomposition): 40%
[14]; 6 hours
  thiotaurine reacted with ^1 O2 (decomposition): 90%
[14]; 6 hours, presence of NaN3 (^1 O2 quencher), pH 7.8
  thiotaurine remaining: approximately 85%
[15]; 10^-2 M/reaction solution
  activation at 10000 µM: 65.8%
[15]; 10^-3 M/reaction solution
  activation at 1000 µM: 32.1%
[15]; 10^-4 M/reaction solution
  activation at 100 µM: 29.6%
[15]; 10^-5 M/reaction solution
  activation at 10 µM: 14.3%
[15]; 10^-6 M/reaction solution
  activation at 1 µM: 1.6%

## N=C(N)NCCS(=O)(O)=S [thiotaurocyamine]
[16]; 1 mol/l
  Inhibition rate (tyrosine oxidation): 91.5%
[16]; 1.25 × 10^-1 mol/l
  Inhibition rate (tyrosine oxidation): 36.8%
[16]; 2.5 × 10^-1 mol/l
  Inhibition rate (tyrosine oxidation): 61.7%
[16]; 5 × 10^-1 mol/l
  Inhibition rate (tyrosine oxidation): 87.7%
[16]; 6.25 × 10^-2 mol/l
  Inhibition rate (tyrosine oxidation): 12.8%
[17]; 1 mol/l
  Inhibition rate (tyrosine oxidation): 96.6%
[17]; 1.25 × 10^-1 mol/l
  Inhibition rate (tyrosine oxidation): 88.2%
[17]; 2.5 × 10^-1 mol/l
  Inhibition rate (tyrosine oxidation): 92.8%
[17]; 5 × 10^-1 mol/l
  Inhibition rate (tyrosine oxidation): 92.4%
[17]; 6.25 × 10^-2 mol/l
  Inhibition rate (tyrosine oxidation): 78.0%

## catalase
[18]
  symptoms of diabetes: suppressed

## superoxide dismutase [SOD]
[18]
  symptoms of diabetes: suppressed
[19]
  amount of lipid peroxides in the epidermis due to UV rays: lowering the amount of lipid peroxides (LPO) in the epidermis due to UV rays
[20]
  XOD reaction inhibited by SOD: 20%
